Measurements: US20220370447A1, “METHOD OF TREATING HBV INFECTION USING A CORE PROTEIN ALLOSTERIC MODULATOR” (Hoffmann-La Roche Inc., priority 2019, published 2022)

Key:
Format in all cases: in vivo, human
[1] = Safety and tolerability in chronic hepatitis B patients
From the text: (§1) Three clinical studies (Part 1 and 2 of YP39364 (NCT02952924), YP39406 (NCT03570658), and YP40218 (NCT03717064)) have been completed to characterize the safety, tolerability, pharmacokinetics (PK) and pharmacodynamics (PD) of Compound (I) in both healthy volunteers and CHB patients. […] Thus, there is an unmet medical need for a novel method of treatment with Compound (I) that could achieve a higher rate of functional cure with a finite treatment duration and excellent tolerability.
In this invention, methods of Compound (I) monotherapy and Compound (I) in combination with other anti-HBV agents for 12-144 weeks were developed. […] Comparing with current NUC treatment, the current finite treatment methods of this invention minimize the risk of drug resistance and decrease adverse effects of NUC treatment (e.g. the risk of renal injury, bone density loss and creatine kinase elevation, etc).

[2] = tested on: HBV; assay: Completed clinical studies (YP39364 Part 1 and 2, YP39406, YP40218), four-week treatment, PD markers; details: four-week treatment with Compound (I)
From the text: as §1

[3] = tested on: HBV; assay: Treatment methods of the invention, Compound (I) monotherapy or combination for 12-144 weeks in patients infected with HBV
From the text: Study population: patients infected with HBV (Terrault NA, Lok ASF, McMahon BJ, et al. Update on prevention, diagnosis, and treatment of chronic hepatitis B: AASLD 2018 hepatitis B guidance. Hepatology. 2018; 67:1560-1599.European Association for the Study of the Liver. EASL 2017 Clinical Practice Guidelines on the management of hepatitis B virus infection. J Hepatol. 2017; 67:370-398.).
General Methods: To explore the effects of Compound (I) on HBsAg loss or decline, Compound (I) is administered following the dose regimen listed in Table 1. The primary measure is the quantitative HBsAg decline or HBsAg loss (<0.05 IU/mL, measured by Elecsys® HBsAg II (Roche)®) at 24 weeks post treatment.

[4] = immune tolerant patients (HBV DNA levels elevated, ALT levels normal)

Question: Which results are given for `CCOC(=O)C1=C(CN2CCN3C(=O)N(CC(C)(C)C(=O)O)C[C@@H]3C2)NC(c2nccs2)=N[C@H]1c1cccc(F)c1C` [Compound (I)]?
Answer: Safety and tolerability [1]: safe and well tolerated; HBV DNA (short-term PD marker) [2]: robust decline; HBV RNA (short-term PD marker) [2]: robust decline; HBsAg decline [2]: significant decline of HBsAg has not been observed; hepatitis B surface antigen (HBsAg) decline or loss ([3]; Compound (I) in combination with other anti-HBV agents for 12-144 weeks): significant hepatitis B surface antigen (HBsAg) decline or loss; HBV DNA decline [3, 4]: robust HBV DNA and HBV RNA decline; HBV RNA decline [3, 4]: robust HBV DNA and HBV RNA decline
